Test results reported in ChEMBL document CHEMBL1143465, “New fluorinated pyrrolidine and azetidine amides as dipeptidyl peptidase IV inhibitors” (Bioorg Med Chem Lett, 2005).

Test system: Mus musculus
Test: Percent inhibition of blood glucose concentration measured 30 min after 10 mg/kg dosing to fasted mice followed 15 min later by 1 g/kg oral glucose load
Assay type: functional

Q: `N[C@H](C(=O)N1CCC(F)(F)C1)C1CCCCC1` was tested. Which inhibition in vivo at 10 mg/kg did it give?
A: The inhibition in vivo at 10 mg/kg was 78%.

Q: For `N[C@H](C(=O)N1CCCC1)C1CCCCC1`, which inhibition in vivo at 10 mg/kg is on record?
A: The inhibition in vivo at 10 mg/kg was 69%.

Q: Which inhibition in vivo at 10 mg/kg does the source give for `N[C@H](C(=O)N1CC(F)(F)C1)C1CCCCC1` here?
A: Its inhibition in vivo at 10 mg/kg is 109%.

Q: How did the inhibition in vivo at 10 mg/kg turn out when `N[C@H](C(=O)N1CC(F)C(F)C1)C1CCCCC1` (stereo partly specified) was run?
A: The inhibition in vivo at 10 mg/kg was 60%.

Q: `N[C@H](C(=O)N1CC(F)(F)C(F)(F)C1)C1CCCCC1` was tested. Which inhibition in vivo at 10 mg/kg did it give?
A: Its inhibition in vivo at 10 mg/kg is 59%.

Q: How did the inhibition in vivo at 10 mg/kg turn out when `N[C@H](C(=O)N1CC(F)C1)C1CCCCC1` was run?
A: Its inhibition in vivo at 10 mg/kg is 70%.
